Experimental data taken from patent publication US10035814B2, “Guanine analogs as telomerase substrates and telomere length affectors” (Geron Corporation, priority 2011, dated 2018).
Where “and” joins values, the source holds several entries; their conditions need not be identical. Equal values may be shown once. Each block holds one compound with its values, some of them ahead of it.

Columns and labels:
telomerase [1] = target: T1, telomerase (Homo sapiens (Human), UniProt O14746); assay: Primer extension assay for telomerase activity; type: biochemical; settings: for IC50: purified telomerase, dGTP 50 μM
T1 sequence (O14746 whole entry): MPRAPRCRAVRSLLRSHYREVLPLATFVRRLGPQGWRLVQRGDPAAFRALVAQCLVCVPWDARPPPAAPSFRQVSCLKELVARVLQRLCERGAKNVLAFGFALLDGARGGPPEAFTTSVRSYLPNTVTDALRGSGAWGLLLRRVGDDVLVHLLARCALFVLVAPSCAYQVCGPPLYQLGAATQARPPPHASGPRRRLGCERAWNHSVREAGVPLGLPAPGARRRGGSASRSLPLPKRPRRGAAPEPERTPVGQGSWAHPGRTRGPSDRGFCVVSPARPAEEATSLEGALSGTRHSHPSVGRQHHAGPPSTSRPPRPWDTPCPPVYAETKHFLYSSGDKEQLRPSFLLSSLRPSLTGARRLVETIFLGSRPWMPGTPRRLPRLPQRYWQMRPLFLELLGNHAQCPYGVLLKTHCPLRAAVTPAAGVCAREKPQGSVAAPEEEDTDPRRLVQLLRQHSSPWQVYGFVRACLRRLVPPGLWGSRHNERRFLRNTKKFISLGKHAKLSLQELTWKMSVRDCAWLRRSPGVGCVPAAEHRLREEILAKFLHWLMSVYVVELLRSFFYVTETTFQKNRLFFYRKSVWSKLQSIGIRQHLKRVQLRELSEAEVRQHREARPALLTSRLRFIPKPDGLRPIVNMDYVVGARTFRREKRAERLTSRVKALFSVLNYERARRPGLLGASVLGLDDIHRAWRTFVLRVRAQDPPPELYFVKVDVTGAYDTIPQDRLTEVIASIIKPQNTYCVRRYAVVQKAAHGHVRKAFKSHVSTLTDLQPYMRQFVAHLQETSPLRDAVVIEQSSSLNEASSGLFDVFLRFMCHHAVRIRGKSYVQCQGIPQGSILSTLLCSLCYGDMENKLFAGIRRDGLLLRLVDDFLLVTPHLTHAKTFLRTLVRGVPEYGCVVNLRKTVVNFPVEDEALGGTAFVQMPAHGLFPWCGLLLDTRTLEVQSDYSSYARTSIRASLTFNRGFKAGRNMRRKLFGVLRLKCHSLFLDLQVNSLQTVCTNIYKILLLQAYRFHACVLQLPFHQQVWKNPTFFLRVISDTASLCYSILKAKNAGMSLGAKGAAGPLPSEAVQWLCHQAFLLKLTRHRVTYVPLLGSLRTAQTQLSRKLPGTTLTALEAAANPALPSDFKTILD
Protocol: Purified human telomerase was incubated with d(TTAGGG)3 (SEQ ID NO: 1) and deoxy-nucleoside triphosphates for 90 minutes at 37° C. All reactions were done in the presence of 200 dTTP and 10 μM dATP (50,000 cpm/pmol a-^33P-dATP). Activity was determined by incubating affinity purified telomerase extract with 1 μM primer [d(TTAGGG)3] (SEQ ID NO: 1), 200 μM dTTP, 50 μM dGTP, 10 μM dATP, 10 μCi [α-^33P]dATP (2000-4000 Ci/mmol) in a buffer containing 50 mM (N-2-hydroxyethyl piperazine-N′-3 propanesulfonic acid)-NaOH pH 8.5, 1 mM MgCl2, 1 mM DTT, 5% glycerol, 0.5 mM EGTA and 100 mM KOAc in a final reaction volume of 40 μl. Primer extension products were analyzed on a 15% polyacrylamide gel containing 7 M urea. A characteristic telomerase ladder has multiple bands. If a compound is not a substrate then (TTAGGG)3TTA (21 nt) (SEQ ID NO: 2). If a compound is a chain terminator then (TTAGGG)3TTAG* (22 nt) (SEQ ID NO: 3).
Purified human telomerase was incubated with d(TTAGGG)3 (SEQ ID NO: 1) and deoxy-nucleoside triphosphates for 90 minutes at 37° C. All reactions were done in the presence of 200 dTTP and 10 μM dATP (50,000 cpm/pmol a-^33P-dATP). Activity was determined by incubating affinity purified telomerase extract with […] primer [d(TTAGGG)3] (SEQ ID NO: 1), […] [α-^33P]dATP (2000-4000 Ci/mmol) in a buffer containing 50 mM (N-2-hydroxyethyl piperazine-N′-3 propanesulfonic acid)-NaOH pH 8.5, 1 mM MgCl2, 1 mM DTT, 5% glycerol, 0.5 mM EGTA and 100 mM KOAc in a final reaction volume of 40 μl. Primer extension products were analyzed on a 15% polyacrylamide gel containing 7 M urea. A characteristic telomerase ladder has multiple bands. If a compound is not a substrate then (TTAGGG)3TTA (21 nt) (SEQ ID NO: 2). If a compound is a chain terminator then (TTAGGG)3TTAG* (22 nt) (SEQ ID NO: 3).

telomerase [2] = target: T1, telomerase; assay: Flash plate (Flashplate) telomerase assay; type: biochemical; settings: affinity purified telomerase extract, 20 μM dGTP; read-out: Flashplate IC 50
Protocol: Determining IC50 for PMPGpp, (R)-PMPGpp and (S)-PMPGpp. Telomerase activity was determined using the “flash-plate” assay with concentrations of PMPGpp ranging from 0.05 μM to 50 μM.
Compound was pre-incubated with affinity purified telomerase extract, 100 nM primer [5′ biotin-d(AATCCGTCGAGCAGAGTT)] (SEQ ID NO: 4), 120 μM dTTP, 20 μM dGTP, […], in a buffer containing 50 mM Tris-Acetate (pH 8.2), 1 mM MgCl2, 1 mM DTT, 0.5 mM EGTA and 150 mM KOAc, 5.4 nM ^33P-labeled [d([…])] (SEQ ID NO: 5 (6×10^9 cpm/nmol) in a final reaction volume of 30 μl. Incubations were done for 90 min at 37° C. Following stoppage of the reaction with EDTA (10 mM), the reaction products were captured in a streptavidin coated 96 well FlashPlate. After a 2 hr capture period for the primer, the plates were washed five times (2×SSC, 0.1% SDS, 10 mM EDTA) and counted.
Compound was pre-incubated with affinity purified telomerase extract, 100 nM primer [5′ biotin-d(AATCCGTCGAGCAGAGTT)] (SEQ ID NO: 4), 120 μM dTTP, 20 μM dGTP, 10 μM dATP, in a buffer containing 50 mM Tris-Acetate (pH 8.2), 1 mM MgCl2, 1 mM DTT, 0.5 mM EGTA and 150 mM KOAc, 5.4 nM ^33P-labeled [d([…])] […]

immortal U87 cells = assay: Telomere repeat fragment (TRF) assay using immortal U87 cells; type: cell-based; settings: concentration not given at the value, approximately 20 population doublings
Protocol: (§1) Approximately 1-2 μg of genomic DNA from each cell line or tissue was digested by Hinf/RsaI for 2 hours at 37° C. Following DNA digestion, the genomic DNA fragments were separated on a 0.8% agarose gel and transferred to a nylon membrane by blotting. All membrane hybridization and detection reagents were provided in the TeloTAGGG Telomere Length Assay kit (Roche Diagnostics, Mannheim Germany). The blotted membranes were hybridized with digoxigenin (DIG)-labeled PNA probe specific for telomeric repeats, followed by incubation with anti-DIG-antibody-alkaline phosphatase according to the manufacturer's instructions. Alkaline phosphatase was quantified using the chemiluminescent substrate. Telomere lengths were calculated according to the manufacturer's instruction.
Telomere repeat fragment assays using immortal U87 cells were performed. 10 μM or 20 μM PMIBeG prodrug (ID#142820) or PMPG prodrug (ID#142715) were added to the cells. Imetelstat (163 L) was used as a reference and a mismatch was used as a negative control. After approximately 20 population doublings, the cells were harvested and telomere lengths determined using TRF. The estimated average lengths were: (1) mismatch control: 5 kb; (2) Imetelstat (163 L): 3.5 kb; (3) PMIBeG prodrug (ID#142820) at 20 μM: 4 kb; (4) PMIBeG prodrug (ID#142820) at 10 μM: 4.1 kb; (5) PMPG prodrug (ID#142715): 3.5 kb.

Caki-1 cells = assay: Caki-1 tumor growth in SCID hairless outbred (SHO) mice; type: in vivo
Protocol: Low-passage Caki-1 cells were injected subcutaneously into the flank of SCID hairless outbred (SHO) mice receiving 30 mg/kg of one of the following via intraperitoneal injection: vehicle (PBS with 0.4% Tween 20), Imetelstat (163 L), PMPG free acid (ID#142693), or PMPG prodrug (ID#142715). Calipers were used to measure tumor length and width bi-weekly, and tumor volume was calculated. Once a tumor had grown >50 mm^3, the animal was randomly entered into a study group, either control or treatment. Animals received 30 mg/kg compound via intraperitoneal injection for the duration of the study. The control vehicle was PBS with 0.4% Tween 20. Tumor volume was measured bi-weekly, and animals were sacrificed either when tumor size was >2000 mm^3 or at defined study completion date.
At the conclusion of the study, a linear transformation of the tumor growth curves was performed. The slope of the growth curves for each treatment group was derived by using a linear mixed effects model. The Y-intercept was used to confirm random tumor starting size at the time of animals entering into the study.

A549 cells = assay: Telomere repeat fragment (TRF) assay using A549 cells; type: cell-based; settings: 10 μM and 5 μM, approximately 70 population doublings
Protocol: as §1
Lane 1 is a ladder from 21.2 kb to 1.9 kb. Lanes 2 and 3 have 10 μM and 5 μM, respectively, of PMPG free acid (ID#142693). Lanes 4 to 6 have 10 μM, 5 μM, and 2.5 μM, respectively, of PMPG prodrug (ID#142715). Lane 7 has 2 μM of Imetelstat (163 L). Lane 8 has 2 μM of a mismatch. Lanes 9 and 10 have 20 μM and 10 μM, respectively, of PMIBeG free acid [(((2-((2-amino-6-oxo-1H-purin-9(6H)-yl)methyl)allyl)oxy)methyl)phosphonic acid] (ID#142811). Indicated amounts each compound were added to A549 cells. After approximately 70 population doublings, the cells were harvested and telomere lengths determined using TRF. The estimated average telomere lengths were: (1) MM/mismatch control: 7 kb; (2) Imetelstat/163 L: 4.3 kb; (3) PMPG prodrug (10 μM and 5 μM): 4 kb; (4) PMPG free acid (5 μM and 10 μM): 4 kb; (5) PMIBeG prodrug (50 μM): 4.3 kb; (6) PMIBeG free acid (20 μM): 5 kb.

telomerase in HT3 cells = telomerase in HT3 cells (Homo sapiens (Human), UniProt O14746); assay: Ex vivo TRAP assay in HT3 cells; type: cell-based
telomerase in HT3 cells, sequence (O14746 whole entry): as above
telomerase in HT3 cells, sequence (O60832 whole entry partner): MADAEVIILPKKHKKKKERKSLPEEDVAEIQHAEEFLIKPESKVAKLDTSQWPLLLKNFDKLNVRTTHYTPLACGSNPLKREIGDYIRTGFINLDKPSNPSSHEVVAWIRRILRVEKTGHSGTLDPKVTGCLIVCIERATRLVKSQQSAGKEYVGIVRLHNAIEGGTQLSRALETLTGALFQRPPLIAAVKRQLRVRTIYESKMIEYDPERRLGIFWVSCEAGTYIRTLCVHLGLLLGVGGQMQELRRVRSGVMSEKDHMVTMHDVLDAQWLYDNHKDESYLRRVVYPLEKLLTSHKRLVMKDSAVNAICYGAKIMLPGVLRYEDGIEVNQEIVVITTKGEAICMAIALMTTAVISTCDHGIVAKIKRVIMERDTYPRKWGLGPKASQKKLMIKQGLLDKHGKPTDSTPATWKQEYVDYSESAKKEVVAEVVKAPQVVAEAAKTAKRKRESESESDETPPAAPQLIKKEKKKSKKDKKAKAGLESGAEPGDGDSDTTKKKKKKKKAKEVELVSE
telomerase in HT3 cells, sequence (Q9NX24 whole entry partner): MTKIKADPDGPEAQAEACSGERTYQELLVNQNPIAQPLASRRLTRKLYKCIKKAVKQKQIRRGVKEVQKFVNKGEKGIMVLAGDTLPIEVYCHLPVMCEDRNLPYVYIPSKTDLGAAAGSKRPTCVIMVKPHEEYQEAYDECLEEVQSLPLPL
telomerase in HT3 cells, sequence (Q9NPE3 whole entry partner): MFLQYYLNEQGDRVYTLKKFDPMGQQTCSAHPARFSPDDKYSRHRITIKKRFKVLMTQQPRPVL
telomerase in HT3 cells, sequence (Q9NY12 whole entry partner): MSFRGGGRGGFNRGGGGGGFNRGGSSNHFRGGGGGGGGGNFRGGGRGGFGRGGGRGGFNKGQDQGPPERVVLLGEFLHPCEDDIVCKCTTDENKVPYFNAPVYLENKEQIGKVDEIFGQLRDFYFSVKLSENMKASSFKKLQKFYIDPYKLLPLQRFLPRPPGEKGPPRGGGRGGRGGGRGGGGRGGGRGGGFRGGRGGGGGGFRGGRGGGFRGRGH
telomerase in HT3 cells, sequence (Q9BUR4 whole entry partner): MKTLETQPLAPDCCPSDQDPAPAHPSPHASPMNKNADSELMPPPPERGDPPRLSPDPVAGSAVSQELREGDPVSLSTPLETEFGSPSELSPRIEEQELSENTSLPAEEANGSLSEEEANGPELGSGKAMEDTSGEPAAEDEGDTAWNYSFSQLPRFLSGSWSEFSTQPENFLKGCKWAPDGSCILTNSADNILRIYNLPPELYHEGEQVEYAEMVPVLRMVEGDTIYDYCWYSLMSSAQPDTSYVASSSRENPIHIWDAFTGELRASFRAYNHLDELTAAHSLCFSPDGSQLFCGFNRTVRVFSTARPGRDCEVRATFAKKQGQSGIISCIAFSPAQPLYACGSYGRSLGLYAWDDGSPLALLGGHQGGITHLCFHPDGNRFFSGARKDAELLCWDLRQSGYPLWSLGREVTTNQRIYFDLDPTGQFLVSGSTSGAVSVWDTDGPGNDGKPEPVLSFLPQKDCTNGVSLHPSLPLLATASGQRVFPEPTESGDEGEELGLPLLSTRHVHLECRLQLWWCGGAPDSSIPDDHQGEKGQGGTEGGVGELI
Protocol: HT3 cells were treated for three days with increasing concentrations of PMPG-diisopropyloxy ester ranging from 0.2 μM to 20 μM. Cells (HT3 RPMI+10% PBS) were incubated with compound for 24 hr after which PSTS primer (phosphorothioate-d(AATCCGTCGAGCAGAGTT (SEQ ID NO: 6) containing a 5′ Cy-5 label) (7.5 μM) and fresh compound are added for an additional 24 hr. Cells were lysed and endogenous telomerase inactivated by heating (15 min, 75° C.). Products were amplified by 30 cycles of PCR under TRAP conditions set forth above and quantified. The results of two independent experiments are shown in Table 4.
HT3 cells were treated for three days with increasing concentrations of one or more of the indicated compounds ranging from 0.2 μM to 20 μM. Cells (HT3 RPMI+10% FBS) were incubated with compound for 24 hours, after which PSTS primer (phosphorothioate-d AATCCGTCGAGCAGAGTT (SEQ ID NO: 6) containing a 5′ Cy-5 label) (7.5 μM) and fresh compound were added for an additional 24 hours. Cells were lysed and endogenous telomerase inactivated by heating (15 minutes, 75° C.). Products were amplified by 30 cycles of PCR under TRAP conditions set forth in Kim et al., Science 266:2011, […] (which reference is incorporated herein in its entirety) and quantified.

[3] = Day 10, 30 mg/kg intraperitoneal
[4] = Day 20, 30 mg/kg intraperitoneal
[5] = Day 30, 30 mg/kg intraperitoneal
[6] = Day 40, 30 mg/kg intraperitoneal
[7] = Day 50, 30 mg/kg intraperitoneal
[8] = Day 60, 30 mg/kg intraperitoneal
[9] = linear mixed effects model, change versus vehicle

- Primer Ext. Assay Notes: telomerase substrate / chain terminator (telomerase [1]; listed as PMPGpp): acts as a chain terminator
- Primer Ext. Assay Notes: telomerase substrate / chain terminator (telomerase [1]; listed as R-PMPGpp): resulting in chain termination
- IC50 (telomerase [1]): ~1000 nM and 1000 nM
- IC50 (telomerase [2]): 1000 nM
Structure (SMILES): CC(Cn1cnc2c(=O)[nH]c(N)nc21)OCP(=O)(O)OP(=O)(O)OP(=O)(O)O (single isomer, unassigned) [ID#142692]

- activity in the cell free telomerase assay (telomerase [1]; prodrug itself, cell free): inactive
- IC50 (telomerase in HT3 cells; HT3 cells, 0.2 μM to 20 μM, two independent experiments, read-out: Ex vivo Assay IC 50): 1000 to 3000 nM and 1200 to 3200 nM
Structure (SMILES): CC(C)OC(=O)OCOP(=O)(COC(C)Cn1cnc2c(=O)[nH]c(N)nc21)OCOC(=O)OC(C)C (single isomer, unassigned) [ID#142715]
- estimated average telomere length (immortal U87 cells): 3.5 kb
- tumor volume (Caki-1 cells; [3]): 170.7 mm^3
- tumor volume as a percentage of the tumor volume of control vehicle mice (Caki-1 cells; [3]): 94%
- tumor volume (Caki-1 cells; [4]): 377.5 mm^3
- tumor volume as a percentage of the tumor volume of control vehicle mice (Caki-1 cells; [4]): 95%
- tumor volume (Caki-1 cells; [5]): 706.6 mm^3
- tumor volume as a percentage of the tumor volume of control vehicle mice (Caki-1 cells; [5]): 95%
- tumor volume (Caki-1 cells; [6]): 1186.6 mm^3
- tumor volume as a percentage of the tumor volume of control vehicle mice (Caki-1 cells; [6]): 95%
- tumor volume (Caki-1 cells; [7]): 1845.9 mm^3
- tumor volume as a percentage of the tumor volume of control vehicle mice (Caki-1 cells; [7]): 95%
- tumor volume (Caki-1 cells; [8]): 2713.0 mm^3
- tumor volume as a percentage of the tumor volume of control vehicle mice (Caki-1 cells; [8]): 96%
- Intercept coefficient of linear transformed tumor growth curve (Caki-1 cells; [9]): −0.093
- Slope coefficient of linear transformed tumor growth curve (Caki-1 cells; [9]): −0.001
- estimated average telomere length (A549 cells): 4 kb
- EC50 (telomerase in HT3 cells; Table 8, assay not given, repeat determinations, values coincide with Ex Vivo TRAP, read-out: EC50): 1100 nM and 1200 nM and 3100 nM and 810 nM

- IC50 (telomerase [1]): 13500 nM
- IC50 (telomerase [2]): 14100 nM
Structure (SMILES): CC(Cn1cnc2c(=O)[nH]c(N)nc21)OCP(=O)(O)OP(=O)(O)OP(=O)(O)O (single isomer, unassigned) [ID#142751, PMPG free acid, S form]
